MIC and IC50 data for 16 compounds are collected here from ChEMBL document CHEMBL1139242, “Peptide deformylase inhibitors of Mycobacterium tuberculosis: synthesis, structural investigations, and biological results” (Bioorg Med Chem Lett, 2008).

As usually defined, the MIC is the smallest concentration in the dilution series that meets the test's criterion for growth inhibition. Low readings indicate greater potency, high ones weaker potency. Broadly, the IC50 is the midpoint of a concentration-inhibition curve. A higher IC50 goes with lower potency.

The structures appear in SMILES notation. Values after ≈ are worked out from the molar mass of the structure shown.

Test [1] deals with Mycobacterium tuberculosis. The test can be described thus: Antitubercular activity against Mycobacterium tuberculosis H37Rv after 14 days by turbidimetric assay. The format is functional. The settings on record: 336 h.
The next test addresses T1, Peptide deformylase (Mycobacterium tuberculosis, UniProt P9WIJ3).
T1 sequence (P9WIJ3 whole entry): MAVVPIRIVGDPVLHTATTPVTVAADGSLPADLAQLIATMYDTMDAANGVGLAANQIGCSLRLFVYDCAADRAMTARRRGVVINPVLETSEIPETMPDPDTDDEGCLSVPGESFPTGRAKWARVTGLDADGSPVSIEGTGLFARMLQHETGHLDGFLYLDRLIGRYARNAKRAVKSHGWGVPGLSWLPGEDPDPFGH
As to the kind of experiment: Inhibition of Mycobacterium tuberculosis peptide deformylase expressed in Escherichia coli M15(pREp4) by microplate assay.

With `CCCC[C@H](CN(O)C=O)C(=O)N1CCC[C@H]1c1nc2ccccc2o1`, the minimum inhibitory concentration (MIC) in test [1] is 0.15 µg/mL (≈ 0.417 µM). On to `O=CN(O)C[C@@H](CC1CC1)C(=O)N1CCC[C@H]1c1nc2ccccc2o1`, for which the IC50 on Peptide deformylase was 21 nM. The compound further showed an MIC in test [1] of 0.2 µg/mL (≈ 0.56 µM).

Compound `CCC[C@H](CN(O)C=O)C(=O)N1CCC[C@H]1c1nc2ccccc2o1` came in with a 50% inhibitory concentration (IC50) against Peptide deformylase of 28 nM. At Peptide deformylase, `CCCCC[C@H](CN(O)C=O)C(=O)N1CCC[C@H]1c1nc2ccccc2[nH]1` showed an IC50 of 15 nM. On the same count and under the same terms, to `O=CN(O)C[C@@H](Cc1ccccc1)C(=O)N1CCC[C@H]1c1nc2ccccc2o1` belongs 161 nM; to `CCCC[C@H](CC(=O)O)C(=O)N1CCC[C@H]1c1nc2ccccc2[nH]1`, 202 nM.

`CCCC[C@H](CN(O)C=O)C(=O)N1CCC[C@H]1c1nc2ccccc2[nH]1` registered an IC50 on Peptide deformylase of 10 nM. This compound yielded an MIC in test [1] of 0.1 µg/mL (≈ 0.279 µM). For the compound `CCCC[C@H](CN(O)C=O)C(=O)N1CCC[C@H]1C(=O)Nc1ccccn1`, in test [1], 0.2 µg/mL (≈ 0.552 µM) was the least that counted as inhibitory (MIC).

On to `CCCCC[C@H](CN(O)C=O)C(=O)N1CCC[C@H]1c1nc2ccccc2o1`, for which, on Peptide deformylase, the midpoint of inhibition, the IC50, lay at 13 nM. On the same count and under the same terms, to `O=CN(O)C[C@@H](Cc1ccccc1)C(=O)N1CCC[C@H]1c1nc2ccccc2[nH]1` belongs 68 nM.

With `CCCC[C@H](C(=O)NO)C(=O)N1CCC[C@H]1c1nc2ccccc2o1`, inhibition against Peptide deformylase was half-maximal at 49 nM (IC50). For `O=CN(O)C[C@@H](CC1CC1)C(=O)N1CCC[C@H]1c1nc2ccccc2[nH]1`, half-maximal inhibition against Peptide deformylase (IC50) was put at 8 nM. The MIC in test [1] turned out to be 0.05 µg/mL (≈ 0.14 µM).

On to `CCC[C@H](CN(O)C=O)C(=O)N1CCC[C@H]1c1nc2ccccc2[nH]1`, for which the 50% inhibitory concentration (IC50) on Peptide deformylase was 24 nM. The same measure, in the same setting: as for `CCCC[C@H](CC(=O)O)C(=O)N1CCC[C@H]1c1nc2ccccc2o1`, the figure is 803 nM.

Consider `CCCC[C@H](C(=O)NO)C(=O)N1CCC[C@H]1c1nc2ccccc2[nH]1`, for which, on Peptide deformylase, half-maximal inhibition (IC50) required 18 nM.

`COc1c(N2CCNC(C)C2)c(F)cc2c(=O)c(C(=O)O)cn(C3CC3)c12` (centres undefined) [GATIFLOXACIN] came in with an MIC in test [1] of 0.07 µg/mL (≈ 0.186 µM).
